Measurements reported in US20210387978A1, “CYCLOBUTYL DIHYDROQUINOLINE SULFONAMIDE COMPOUNDS” (AMGEN INC., priority 2020, published 2021).

Molecular target: T1, Human Nav1.7 (Homo sapiens, UniProt Q15858)
T1 construct: expressed in transfected cells; host or cells: Spiking HEK cells (without Kir2.1 transfection)
Assay: IonWorks Barracuda (IWB) automated patch clamp assay
Format: cell-based
Conditions: human Nav1.7 currents, HEK cells, population patch-clamp, state- and use-dependent voltage protocol; read-out: hNaV1.7 IWB-U IC50
Description: Ionaworks Barracuda […] Automated Patch Clamp Assay (Same Protocol for Both Human and Mouse)
Human Nav1.7 currents were recorded in population patch-clamp mode with the IWB automated electrophysiology system (Molecular Devices, LLC, Sunnyvale, Calif.). Spiking HEK cells (without Kir2.1 transfection) were cultured and prepared for recordings as previously described for IonWorks Quattro testing^1. The external solution consisted of the following (in mM): NaCl 140, KCl 5, CaCl2 2, MgCl2 1, HEPES 10, and glucose 11, pH 7.4, with N-methyl-D-glucamine at 320 mOsmol. […] From a holding potential of −110 mV, currents were elicited by a train of 26 depolarizations of 150 ms duration to −20 mV at a frequency of 5 Hz. Cells were then clamped to −20 mV for a period of 4 minutes in the presence of a single concentration of test compound. Following this compound incubation period, cells were clamped to −110 mV for three seconds to recover unbound channels and put through the same 26 pulse voltage protocol as above. Peak inward current during the 26th pulse to −20 mV in the presence of compound was divided by the peak inward current evoked by the 26th pulse to −20 mV in the absence of compound to determine percent inhibition. Concentration-response curves of percent inhibition as a function of concentration were generated to calculate IC50 values as described in Kornecook, T. J.; Yin, R.; Altmann, S.; et al. Pharmacologic Characterization of AMG8379, a Potent and Selective Small Molecule Sulfonamide Antagonist of the Voltage-Gated Sodium Channel NaV1. 7.
The potency of the compounds of the present invention were evaluated on human Nav1.7 channels using the above described IonWorks Barracuda automated electrophysiology platform that evaluates the ability of compounds to block sodium conductance through Nav1.7 channels. A voltage-protocol that prosecutes both state-dependent as well as use-dependent inhibition was used as these modes of action are thought to be more relevant for the native state of Nav1.7 channels in pain sensing neurons in vivo.

T1 sequence (Q15858 whole entry): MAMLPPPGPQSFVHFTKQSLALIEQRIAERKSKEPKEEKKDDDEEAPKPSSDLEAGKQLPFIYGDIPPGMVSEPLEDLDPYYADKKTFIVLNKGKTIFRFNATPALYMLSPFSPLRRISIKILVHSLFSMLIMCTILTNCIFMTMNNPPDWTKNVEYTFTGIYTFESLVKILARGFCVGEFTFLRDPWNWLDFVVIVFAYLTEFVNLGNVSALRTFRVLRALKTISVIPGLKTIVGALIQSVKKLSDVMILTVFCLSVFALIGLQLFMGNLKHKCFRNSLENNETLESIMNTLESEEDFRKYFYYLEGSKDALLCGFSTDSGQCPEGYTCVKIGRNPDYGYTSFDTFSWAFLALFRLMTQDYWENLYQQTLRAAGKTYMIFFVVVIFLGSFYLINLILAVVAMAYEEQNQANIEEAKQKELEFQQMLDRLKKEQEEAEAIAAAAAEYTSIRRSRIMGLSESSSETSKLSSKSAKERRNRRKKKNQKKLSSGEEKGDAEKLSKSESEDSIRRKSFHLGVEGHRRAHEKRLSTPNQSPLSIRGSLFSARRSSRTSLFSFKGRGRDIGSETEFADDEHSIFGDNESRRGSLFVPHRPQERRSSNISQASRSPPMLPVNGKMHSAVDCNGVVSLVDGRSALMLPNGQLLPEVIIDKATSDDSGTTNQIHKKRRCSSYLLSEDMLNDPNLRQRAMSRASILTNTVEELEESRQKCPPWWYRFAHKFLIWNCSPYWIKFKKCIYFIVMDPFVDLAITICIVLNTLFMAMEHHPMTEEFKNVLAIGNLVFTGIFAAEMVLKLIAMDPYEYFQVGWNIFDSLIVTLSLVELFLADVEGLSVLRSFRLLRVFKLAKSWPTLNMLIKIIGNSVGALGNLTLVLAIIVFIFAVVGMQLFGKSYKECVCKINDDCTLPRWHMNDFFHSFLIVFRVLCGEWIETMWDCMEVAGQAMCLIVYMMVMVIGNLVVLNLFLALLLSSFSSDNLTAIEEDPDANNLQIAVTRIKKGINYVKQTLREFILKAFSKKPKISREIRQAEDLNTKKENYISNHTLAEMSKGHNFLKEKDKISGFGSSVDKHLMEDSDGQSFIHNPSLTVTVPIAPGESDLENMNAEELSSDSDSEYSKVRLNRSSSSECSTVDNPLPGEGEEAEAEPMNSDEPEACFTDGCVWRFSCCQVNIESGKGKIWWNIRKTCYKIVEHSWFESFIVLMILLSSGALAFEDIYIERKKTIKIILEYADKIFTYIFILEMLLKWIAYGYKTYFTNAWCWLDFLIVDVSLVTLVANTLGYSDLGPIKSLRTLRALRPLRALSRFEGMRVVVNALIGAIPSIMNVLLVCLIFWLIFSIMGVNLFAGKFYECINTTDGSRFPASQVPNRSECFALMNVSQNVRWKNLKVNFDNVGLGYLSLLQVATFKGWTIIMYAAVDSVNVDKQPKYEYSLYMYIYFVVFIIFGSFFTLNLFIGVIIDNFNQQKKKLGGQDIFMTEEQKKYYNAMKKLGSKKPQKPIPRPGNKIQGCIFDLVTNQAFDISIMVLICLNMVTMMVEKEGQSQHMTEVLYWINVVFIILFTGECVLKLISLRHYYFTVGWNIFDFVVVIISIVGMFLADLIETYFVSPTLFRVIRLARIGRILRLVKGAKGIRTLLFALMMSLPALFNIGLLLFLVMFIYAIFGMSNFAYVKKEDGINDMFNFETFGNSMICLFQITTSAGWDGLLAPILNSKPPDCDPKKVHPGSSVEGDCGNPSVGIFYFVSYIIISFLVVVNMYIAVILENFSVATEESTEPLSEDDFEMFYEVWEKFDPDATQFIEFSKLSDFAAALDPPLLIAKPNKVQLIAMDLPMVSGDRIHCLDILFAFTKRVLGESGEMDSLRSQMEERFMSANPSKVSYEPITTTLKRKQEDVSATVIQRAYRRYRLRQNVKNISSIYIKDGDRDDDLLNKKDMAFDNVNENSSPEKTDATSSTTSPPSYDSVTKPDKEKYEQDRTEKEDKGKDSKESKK

IC50 [nM] | SMILES
21 | COc1cc([C@H]2C[C@H](C(F)(F)F)C2)ccc1-n1c(=O)ccc2cc(S(=O)(=O)Nc3cccnn3)ccc21 (atropisomer, axis not shown; (P)) [Example 38, trans-(P)-1-(2-methoxy-4-(3-(trifluoromethyl)cyclobutyl)phenyl)-2-oxo-N-(pyridazin-3-yl)-1,2-dihydroquinoline-6-sulfonamide]
54 | COc1cc(C2CCC2)c(F)cc1-n1c(=O)ccc2cc(S(=O)(=O)Nc3ncccn3)ccc21 (atropisomer, axis not shown; (P)) [Example 28, (P)-1-(4-cyclobutyl-5-fluoro-2-methoxyphenyl)-2-oxo-N-(pyrimidin-2-yl)-1,2-dihydroquinoline-6-sulfonamide]
5 | COc1cc([C@H]2C[C@@](F)(C(F)(F)F)C2)c(F)cc1-n1c(=O)ccc2cc(S(=O)(=O)Nc3ccon3)ccc21 (atropisomer, axis not shown; (P)) [Example 8, trans-(P)-1-(5-fluoro-4-(3-fluoro-3-(trifluoromethyl)cyclobutyl)-2-methoxyphenyl)-N-(isoxazol-3-yl)-2-oxo-1,2-dihydroquinoline-6-sulfonamide]
2 | COc1cc([C@H]2C[C@](F)(C(F)(F)F)C2)c(F)cc1-n1c(=O)ccc2cc(S(=O)(=O)Nc3ccon3)ccc21 (atropisomer, axis not shown; (P)) [Example 9, cis-(P)-1-(5-fluoro-4-(3-fluoro-3-(trifluoromethyl)cyclobutyl)-2-methoxyphenyl)-N-(isoxazol-3-yl)-2-oxo-1,2-dihydroquinoline-6-sulfonamide]
8 | COc1cc(C23CC(C(F)(F)F)(C2)C3)c(F)cc1-n1c(=O)ccc2cc(S(=O)(=O)Nc3ncccn3)ccc21 (atropisomer, axis not shown; (P)) [Example 47, (P)-1-(5-fluoro-2-methoxy-4-(3-(trifluoromethyl)bicyclo[1.1.1]pentan-1-yl)phenyl)-2-oxo-N-(pyrimidin-2-yl)-1,2-dihydroquinoline-6-sulfonamide]
11 | COc1cc(C2CC(F)(F)C2)c(F)cc1-n1c(=O)ccc2cc(S(=O)(=O)Nc3ccon3)c(F)cc21 (atropisomer, axis not shown; (P)) [Example 41, (P)-1-(4-(3,3-difluorocyclobutyl)-5-fluoro-2-methoxyphenyl)-7-fluoro-N-(isoxazol-3-yl)-2-oxo-1,2-dihydroquinoline-6-sulfonamide]
8 | COc1cc([C@H]2C[C@H](OC(F)(F)F)C2)c(F)cc1-n1c(=O)ccc2cc(S(=O)(=O)Nc3ccon3)ccc21 (single isomer, unassigned) [Example 45, trans-(P)-1-(5-fluoro-2-methoxy-4-(3-(trifluoromethoxy)cyclobutyl)phenyl)-N-(isoxazol-3-yl)-2-oxo-1,2-dihydroquinoline-6-sulfonamide]
104 | COc1cc(C2CCC2)c(C)cc1-n1c(=O)ccc2cc(S(=O)(=O)Nc3ncccn3)ccc21 (atropisomer, axis not shown; (P)) [Example 27, (P)-1-(4-Cyclobutyl-2-Methoxy-5-Methylphenyl)-2-Oxo-N-(Pyrimidin-2-Yl)-1,2-Dihydro Quinoline-6-Sulfonamide]
22 | COc1cc(C2CCC2)c(Cl)cc1-n1c(=O)ccc2cc(S(=O)(=O)Nc3ncccn3)ccc21 (atropisomer, axis not shown; (P)) [Example 18, (P)-1-(5-chloro-4-cyclobutyl-2-methoxyphenyl)-2-oxo-N-(pyrimidin-2-yl)-1,2-dihydroquinoline-6-sulfonamide]
137 | COc1cc(C2CCC2)c(C)cc1-n1c(=O)ccc2cc(S(=O)(=O)Nc3cccnn3)ccc21 (atropisomer, axis not shown; (P)) [Example 30, (P)-1-(4-cyclobutyl-2-methoxy-5-methylphenyl)-2-oxo-N-(pyridazin-3-yl)-1,2-dihydroquinoline-6-sulfonamide]
80 | COc1cc(C2CCC2)ccc1-n1c(=O)ccc2cc(S(=O)(=O)Nc3ncccn3)ccc21 (atropisomer, axis not shown; (P)) [Example 26, (P)-1-(4-cyclobutyl-2-methoxyphenyl)-2-oxo-N-(pyrimidin-2-yl)-1,2-dihydroquinoline-6-sulfonamide]
5 | COc1cc([C@H]2C[C@H](C(F)(F)F)C2)c(F)cc1-n1c(=O)ccc2cc(S(=O)(=O)Nc3ccon3)c(F)cc21 (atropisomer, axis not shown; (P)) [Example 40, (P)-7-fluoro-1-(5-fluoro-2-methoxy-4-((1R,3R)-3-(trifluoromethyl)cyclobutyl)phenyl)-N-(isoxazol-3-yl)-2-oxo-1,2-dihydroquinoline-6-sulfonamide]
48 | COc1cc(C2CC2)c(F)cc1-n1c(=O)ccc2cc(S(=O)(=O)Nc3ccon3)ccc21 [Compound X, 1-(4-cyclopropyl-5-fluoro-2-methoxyphenyl)-N-(isoxazol-3-yl)-2-oxo-1,2-dihydroquinoline-6-sulfonamide, reference compound]
37 | COc1cc(C2CCC2)ccc1-n1c(=O)ccc2cc(S(=O)(=O)Nc3ncco3)ccc21 (atropisomer, axis not shown; (P)) [Example 29, (P)-1-(4-cyclobutyl-2-methoxyphenyl)-N-(oxazol-2-yl)-2-oxo-1,2-dihydroquinoline-6-sulfonamide]
8 | COc1cc([C@H]2C[C@](F)(C(F)(F)F)C2)c(Cl)cc1-n1c(=O)ccc2cc(S(=O)(=O)Nc3ccon3)ccc21 (atropisomer, axis not shown; (P)) [Example 10, cis-(P)-1-(5-chloro-4-(3-fluoro-3-(trifluoromethyl)cyclobutyl)-2-methoxyphenyl)-N-(isoxazol-3-yl)-2-oxo-1,2-dihydroquinoline-6-sulfonamide]
15 | COc1cc([C@H]2C[C@H](C(F)(F)F)C2)c(Cl)cc1-n1c(=O)ccc2cc(S(=O)(=O)Nc3ncccn3)ccc21 (atropisomer, axis not shown; (P)) [Example 17, trans-(P)-1-(5-chloro-2-methoxy-4-(3-(trifluoromethyl)cyclobutyl)phenyl)-2-oxo-N-(pyrimidin-2-yl)-1,2-dihydroquinoline-6-sulfonamide]
6 | COc1cc(C23CC(C(F)(F)F)(C2)C3)c(F)cc1-n1c(=O)ccc2cc(S(=O)(=O)Nc3ccon3)ccc21 (atropisomer, axis not shown; (P)) [Example 42, (P)-1-(5-fluoro-2-methoxy-4-(3-(trifluoromethyl)bicyclo[1.1.1]pentan-1-yl)phenyl)-N-(isoxazol-3-yl)-2-oxo-1,2-dihydroquinoline-6-sulfonamide]
7 | COc1cc([C@H]2C[C@H](C(F)(F)F)C2)c(F)cc1-n1c(=O)ccc2cc(S(=O)(=O)Nc3ncco3)ccc21 (atropisomer, axis not shown; (P)) [Example 43, Trans-(P)-1-(5-Fluoro-2-Methoxy-4-(3-(Trifluoromethyl)Cyclobutyl)Phenyl)-N-(Oxazol-2-Yl)-2-Oxo-1,2-Dihydroquinoline-6-Sulfonamide]
12 | COc1cc([C@H]2C[C@H](C(F)(F)F)C2)c(C)cc1-n1c(=O)ccc2cc(S(=O)(=O)Nc3ccon3)ccc21 (atropisomer, axis not shown; (P)) [Example 20, trans-(P)—N-(isoxazol-3-yl)-1-(2-methoxy-5-methyl-4-(3-(trifluoromethyl)cyclobutyl)phenyl)-2-oxo-1,2-dihydroquinoline-6-sulfonamide]
50 | COc1cc(C2CCC2)c(C)cc1-n1c(=O)ccc2cc(S(=O)(=O)Nc3ccon3)ccc21 (atropisomer, axis not shown; (P)) [Example 22, (P)-1-(4-cyclobutyl-2-methoxy-5-methylphenyl)-N-(isoxazol-3-yl)-2-oxo-1,2-dihydroquinoline-6-sulfonamide]
15 | COc1cc([C@H]2C[C@H](C(F)(F)F)C2)c(Cl)cc1-n1c(=O)ccc2cc(S(=O)(=O)Nc3cccnn3)ccc21 (atropisomer, axis not shown; (P)) [Example 19, trans-(P)-1-(5-chloro-2-methoxy-4-(3-(trifluoromethyl)cyclobutyl)phenyl)-2-oxo-N-(pyridazin-3-yl)-1,2-dihydroquinoline-6-sulfonamide]
37 | COc1cc(C2CCC2)ccc1-n1c(=O)ccc2cc(S(=O)(=O)Nc3ccon3)ccc21 (atropisomer, axis not shown; (P)) [Example 25, (P)-1-(4-cyclobutyl-2-methoxyphenyl)-N-(isoxazol-3-yl)-2-oxo-1,2-dihydroquinoline-6-sulfonamide]
